Test results: patent publication US20180055032A1, “ODORS FOR PSYLLID TRAPPING, REPELLING AND CONTROL” (The Regents of the University of California, priority 2011, published 2018)

Key:
Type in all cases: cell-based, Diaphorina citri
[1] = system: neuron 2A (rhinarial plate on flagellomere 2); assay: single-sensillum electrophysiology, odor response of neuron 2A; settings: for odor response (frequency of action potentials during stimulus minus baseline), 2A: Table 1, odor diluted to 1%, 50 μL in cartridge; for all read-outs here: key: 0, no response; +, >50 spikes/second; ++, >100 spikes/second; +++, >150 spikes/second
[2] = system: neuron 2B (rhinarial plate on flagellomere 2); assay: single-sensillum electrophysiology, odor response of neuron 2B; settings: for odor response (frequency of action potentials during stimulus minus baseline), 2B: Table 1, odor diluted to 1%, 50 μL in cartridge; for response to ultra-prolonged activators, 2B: key: 0, no response; +, >50 spikes/second; ++, >100 spikes/second; +++, >150 spikes/second
[3] = system: neuron 2C (rhinarial plate on flagellomere 2); assay: single-sensillum electrophysiology, odor response of neuron 2C; settings: for odor response (frequency of action potentials during stimulus minus baseline), 2C: Table 1, odor diluted to 1%, 50 μL in cartridge; for response to ultra-prolonged activators, 2C: key: 0, no response; +, >50 spikes/second; ++, >100 spikes/second; +++, >150 spikes/second
[4] = system: neuron 4A (rhinarial plate on flagellomere 4); assay: single-sensillum electrophysiology, odor response of neuron 4A; settings: for odor response (frequency of action potentials during stimulus minus baseline), 4A: Table 1, odor diluted to 1%, 50 μL in cartridge
[5] = system: neuron 4B (rhinarial plate on flagellomere 4); settings: for odor response (frequency of action potentials during stimulus minus baseline), 4B: Table 1, odor diluted to 1%, 50 μL in cartridge
[6] = system: neuron 4C (rhinarial plate on flagellomere 4); assay: single-sensillum electrophysiology, odor response of neuron 4C; settings: for odor response (frequency of action potentials during stimulus minus baseline), 4C: Table 1, odor diluted to 1%, 50 μL in cartridge
[7] = system: neuron 6A (rhinarial plate on flagellomere 6); assay: single-sensillum electrophysiology, odor response of neuron 6A; settings: for odor response (frequency of action potentials during stimulus minus baseline), 6A: Table 1, odor diluted to 1%, 50 μL in cartridge
[8] = system: neuron 6B (rhinarial plate on flagellomere 6); assay: single-sensillum electrophysiology, odor response of neuron 6B; settings: for odor response (frequency of action potentials during stimulus minus baseline), 6B: Table 1, odor diluted to 1%, 50 μL in cartridge
[9] = system: neuron 6C (rhinarial plate on flagellomere 6); assay: single-sensillum electrophysiology, odor response of neuron 6C; settings: for odor response (frequency of action potentials during stimulus minus baseline), 6C: Table 1, odor diluted to 1%, 50 μL in cartridge
[10] = system: neuron 7A (rhinarial plate on flagellomere 7); assay: single-sensillum electrophysiology, odor response of neuron 7A; settings: for odor response (frequency of action potentials during stimulus minus baseline), 7A: Table 1, odor diluted to 1%, 50 μL in cartridge; for all read-outs here: key: 0, no response; +, >50 spikes/second; ++, >100 spikes/second; +++, >150 spikes/second
[11] = system: neuron 7B (rhinarial plate on flagellomere 7); settings: for odor response (frequency of action potentials during stimulus minus baseline), 7B: Table 1, odor diluted to 1%, 50 μL in cartridge
[12] = system: neuron 7C (rhinarial plate on flagellomere 7); assay: single-sensillum electrophysiology, odor response of neuron 7C; settings: for odor response (frequency of action potentials during stimulus minus baseline), 7C: Table 1, odor diluted to 1%, 50 μL in cartridge
[13] = Table 3, 10^−2 in paraffin oil, 50 μL, odor puff of 0.5 sec

Row | SMILES | odor response (frequency of action potentials during stimulus minus baseline), 2A [1] | odor response (frequency of action potentials during stimulus minus baseline), 2B [2] | odor response (frequency of action potentials during stimulus minus baseline), 2C [3] | odor response (frequency of action potentials during stimulus minus baseline), 4A [4] | odor response (frequency of action potentials during stimulus minus baseline), 4B [5] | odor response (frequency of action potentials during stimulus minus baseline), 4C [6] | odor response (frequency of action potentials during stimulus minus baseline), 6A [7] | odor response (frequency of action potentials during stimulus minus baseline), 6B [8] | odor response (frequency of action potentials during stimulus minus baseline), 6C [9] | odor response (frequency of action potentials during stimulus minus baseline), 7A [10] | odor response (frequency of action potentials during stimulus minus baseline), 7B [11] | odor response (frequency of action potentials during stimulus minus baseline), 7C [12] | other results
1 | C=C/C(C)=C\C/C=C(\C)CCC=C(C)C [ZE-α-farnesene] | 0 | 0 | + (+, >50 spikes/second) | 0 | 0 | 0 | 0 | 0 | 0 | 0 | 0 | 0 | 
2 | C=CCSSCC=C [allyl disulfide] | 0 | 0 | 0 | 0 | ++ (++, >100 spikes/second) | 0 | 0 | + (+, >50 spikes/second) | 0 | 0 | 0 | 0 | 
3 | C=C(C)[C@H]1CC=C(C)C(=O)C1 [(+)-carvone] | 0 | 0 | 0 | 0 | ++ (++, >100 spikes/second) | 0 | 0 | ++ (++, >100 spikes/second) | 0 | 0 | 0 | 0 | response to ultra-prolonged activators, 2A [1, 13]: 0; response to ultra-prolonged activators, 2B [2, 13]: 0; response to ultra-prolonged activators, 2C [3, 13]: 0; response to ultra-prolonged activators, 4A [4, 13]: 0; response to ultra-prolonged activators, 4B [5, 13]: ++ (++, >100 spikes/second); response to ultra-prolonged activators, 4C [6, 13]: 0; response to ultra-prolonged activators, 6A [7, 13]: 0; response to ultra-prolonged activators, 6B [8, 13]: ++ (++, >100 spikes/second); response to ultra-prolonged activators, 6C [9, 13]: 0; response to ultra-prolonged activators, 7A [10, 13]: 0; response to ultra-prolonged activators, 7B [11, 13]: 0; response to ultra-prolonged activators, 7C [12, 13]: 0
4 | O=Cc1ccccc1 [benzaldehyde] | 0 | 0 | + (+, >50 spikes/second) | 0 | + (+, >50 spikes/second) | 0 | 0 | 0 | 0 | 0 | 0 | 0 | 
5 | CC(C)=CCCC(C)=CC=O [citral] | 0 | 0 | ++ (++, >100 spikes/second) | 0 | 0 | 0 | 0 | 0 | 0 | 0 | 0 | 0 | 
6 | CCC/C=C/C=O [E2-hexenal] | 0 | 0 | ++ (++, >100 spikes/second) | 0 | + (+, >50 spikes/second) | 0 | 0 | + (+, >50 spikes/second) | 0 | 0 | 0 | 0 | 
7 | CCCCCOC(C)=O [pentyl acetate] | 0 | 0 | ++ (++, >100 spikes/second) | 0 | + (+, >50 spikes/second) | 0 | 0 | ++ (++, >100 spikes/second) | 0 | 0 | 0 | 0 | 
8 | CC(=O)c1ccccc1 [acetophenone] | 0 | 0 | 0 | 0 | ++ (++, >100 spikes/second) | 0 | 0 | ++ (++, >100 spikes/second) | 0 | 0 | 0 | + (+, >50 spikes/second) | 
9 | CC1=CCC2C(C1)C2(C)C (stereo not drawn) [δ-3-carene] | 0 | 0 | 0 | 0 | ++ (++, >100 spikes/second) | 0 | 0 | ++ (++, >100 spikes/second) | 0 | 0 | 0 | 0 | 
10 | C=CC(=C)CCC=C(C)C [myrcene] | 0 | 0 | ++ (++, >100 spikes/second) | 0 | + (+, >50 spikes/second) | 0 | 0 | + (+, >50 spikes/second) | 0 | 0 | 0 | 0 | 
11 | CC1=CCC(C(C)C)=CC1 [γ-terpinene] | 0 | 0 | 0 | 0 | +++ (+++, >150 spikes/second) | 0 | 0 | ++ (++, >100 spikes/second) | 0 | 0 | 0 | 0 | 
